Results: patent publication US6613317B1, “Volatile attractants for diabrotica species” (priority 1988, dated 2003)
Marks after values point to notes of the source that are not given here.

Experiments:
D. v. virgifera [1] = test: Sticky trap attraction along hybrid corn, Pomology South Farms (Example 2); assay type: in vivo, Diabrotica virgifera virgifera; settings: 100 mg per trap, n = 4
Outline: (§1)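 Lures (>98% purity) dosed at 100 mg per trap on cotton wicks atop TangleTrap-coated 1.0 liter cartons, solids dissolved in acetone; untreated wicks as controls. Four replicates placed 10 m apart on 1 m posts along a 0.8 ha hybrid corn field; mean beetles caught after 24-h, log-transformed ANOVA with Duncan's test.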

D. barberi [2] = test: Sticky trap attraction in prairie habitat, Trelease Woods (Example 2); assay type: in vivo, Diabrotica barberi; settings: for Mean number of D. barberi per day (±standard deviation) / Mean number of D. barberi per sticky trap per day (±standard deviation): 100 mg per trap, n = 4
Outline: (§2)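 Lure-dosed cotton wicks (solids in acetone; untreated controls) on TangleTrap-coated cartons atop 1 m posts, four replicates 10 m apart in relict prairie, mid-August over two years. Read-out: mean beetles caught after 24-h; log-transformed ANOVA with Duncan's multiple range test.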

D. v. virgifera [3] = test: as above; assay type: in vivo, Diabrotica virgifera virgifera; settings: 100 mg per trap, n = 4
Outline: as §2

D. u. howardi [4] = test: Sticky trap attraction along hybrid corn, Pomology South Farms (Example 2); assay type: in vivo, Diabrotica undecimpunctata howardi; settings: 100 mg per trap, n = 4
Outline: as §1

D. barberi [5] = test: as above; assay type: in vivo, Diabrotica barberi; settings: 100 mg per trap, n = 4
Outline: as §1

D. cristata = test: Sticky trap attraction in prairie habitat, Trelease Woods (Example 2); assay type: in vivo, Diabrotica cristata; settings: 100 mg per trap, n = 4
Outline: as §2

[6] = test system: southern corn rootworm (SCR) adults; test: Sticky trap attraction in corn, estragole analogues (Example 3); assay type: in vivo, Diabrotica undecimpunctata howardi; settings: 100 mg per trap, n = 4
Outline: (§3)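 Cotton wicks dosed with 100 mg or 100 μL attractant per trap on TangleTrap-coated cartons, four replicates 10 m apart on 1 m posts at field edges of hybrid or sweet corn. Mean beetles caught after ~24 h; log-transformed ANOVA with Duncan's test, P=0.05.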

D. u. howardi [7] = test: Sticky trap attraction in prairie habitat, Trelease Woods (Example 2); assay type: in vivo, Diabrotica undecimpunctata howardi; settings: 100 mg per trap, n = 4
Outline: as §2

[8] = test system: northern corn rootworm (NCR) adults; test: Sticky trap attraction in corn, estragole analogues (Example 3); assay type: in vivo, Diabrotica barberi; settings: 100 mg per trap, n = 4
Outline: as §3

Row | SMILES | Mean number of D. v. virgifera per stick trap per day (±standard deviation) in corn (D. v. virgifera [1]; August 7) | Mean number of D. v. virgifera per stick trap per day (±standard deviation) in corn (D. v. virgifera [1]; August 18) | Mean number of D. barberi per day (±standard deviation) (D. barberi [2]; August 11, 1987) | Mean number of D. barberi per day (±standard deviation) (D. barberi [2]; August 14, 1987) | activity for D. barberi relative to estragole (D. barberi [2]; prairie, Table 5) [times] | Mean number of D. v. virgifera per day (±standard deviation) (D. v. virgifera [3]; August 11, 1987) | Mean number of D. v. virgifera per day (±standard deviation) (D. v. virgifera [3]; August 14, 1987) | Mean number of D. u. howardi per stick trap per day (±standard deviation) in corn (D. u. howardi [4]; August 7) | Mean number of D. u. howardi per stick trap per day (±standard deviation) in corn (D. u. howardi [4]; August 18) | Mean number of D. barberi per stick trap per day (±standard deviation) in corn (D. barberi [5]; August 7) | Mean number of D. barberi per stick trap per day (±standard deviation) in corn (D. barberi [5]; August 18) | Mean number of D. cristata per day (±standard deviation) (D. cristata; August 11, 1987) | Mean number of D. cristata per day (±standard deviation) (D. cristata; August 14, 1987) | Mean number of SCR (±standard deviation) per sticky trap after 24 hours ([6]; August 7 (Table 11)) | Mean number of SCR (±standard deviation) per sticky trap after 24 hours ([6]; August 18 (Table 11)) | Mean number of D. u. howardi per day (±standard deviation) (D. u. howardi [7]; August 11, 1987) | Mean number of D. u. howardi per day (±standard deviation) (D. u. howardi [7]; August 14, 1987) | Mean number of NCR (±standard deviation) per sticky trap after 24 hours ([8]; August 7 (Table 11)) | Mean number of NCR (±standard deviation) per sticky trap after 24 hours ([8]; August 18 (Table 11)) | further results
1 | OCC=Cc1ccccc1 [XVIII, cinnamyl alcohol] | 13.8 ± 10.2^a per stick trap per day | 3.3 ± 2.7^a per stick trap per day | 16.5 ± 5.1^c per day | 13.0 ± 12.8^bc per day | 5 | 0.0 per day | 0.0^a per day | 24.5 ± 13.6^b per stick trap per day | 1.8 ± 1.3^b per stick trap per day | 8.5 ± 6.1^b per stick trap per day | 23.3 ± 5.9^c per stick trap per day | 28.3 ± 5.3^c per day | 20.5 ± 1.3^d per day | 24.5 ± 13.6^b per sticky trap | 1.8 ± 1.3^b per sticky trap | 0.3 ± 0.5^a per day | 2.8 ± 1.7^b per day | 8.5 ± 6.1^b per sticky trap | 23.2 ± 5.9^c per sticky trap | activity for D. barberi relative to the TIC mixture (D. barberi [2]; prairie, Table 5): ca. 3.5 times; Mean number of SCR per sticky trap after 24 hours ([6]; August 5 (Table 10)): 14.5 ± 9.6^ab per sticky trap; Mean number of NCR per sticky trap after 24 hours ([8]; August 5 (Table 10)): 8.7 ± 4.6^c per sticky trap
2 | C=CCc1ccc(O)c(OC)c1 [XXIV, eugenol] | 10.0 ± 2.9^a per stick trap per day | 2.8 ± 2.9^a per stick trap per day | 9.5 ± 8.3^bc per day | 8.3 ± 3.3^c per day | 2 | 0.3 ± 0.5^a per day | 0.0^a per day | 6.3 ± 1.0^a per stick trap per day | 0.0^a per stick trap per day | 5.8 ± 2.2^b per stick trap per day | 16.3 ± 5.7^b per stick trap per day | 39.5 ± 9.4^c per day | 20.0 ± 8.4^cd per day | 6.2 ± 1.0^a per sticky trap | 0.0^a per sticky trap | 0.0^a per day | 0.0^a per day | 5.7 ± 2.2^b per sticky trap | 16.5 ± 5.7^b per sticky trap | Mean number of D. barberi per sticky trap per day (±standard deviation) (D. barberi [2]; August 18, first year): 21.8 ± 7.3^b per sticky trap per day; Mean number of D. barberi per sticky trap per day (±standard deviation) (D. barberi [2]; August 20, first year): 22.5 ± 13.2^c per sticky trap per day; Mean number of D. barberi per sticky trap per day (±standard deviation) (D. barberi [2]; August 27, first year): 10.5 ± 4.8^b per sticky trap per day; Mean number of D. v. virgifera per sticky trap per day (±standard deviation) (D. v. virgifera [3]; August 18, first year): 0.3 ± 0.5^a per sticky trap per day; Mean number of D. v. virgifera per sticky trap per day (±standard deviation) (D. v. virgifera [3]; August 20, first year): 0 per sticky trap per day; Mean number of D. v. virgifera per sticky trap per day (±standard deviation) (D. v. virgifera [3]; August 27, first year): 0 per sticky trap per day; Mean number of D. cristata per sticky trap per day (±standard deviation) (D. cristata; August 18, first year): 11.5 ± 8.6^b per sticky trap per day; Mean number of D. cristata per sticky trap per day (±standard deviation) (D. cristata; August 20, first year): 15.5 ± 7.9^c per sticky trap per day; Mean number of D. cristata per sticky trap per day (±standard deviation) (D. cristata; August 27, first year): 3.5 ± 3.3^b per sticky trap per day; Mean number of D. u. howardi per sticky trap per day (±standard deviation) (D. u. howardi [7]; August 18, first year): 0.3 ± 0.5^a per sticky trap per day; Mean number of D. u. howardi per sticky trap per day (±standard deviation) (D. u. howardi [7]; August 20, first year): 0.8 ± 0.5^a per sticky trap per day; Mean number of D. u. howardi per sticky trap per day (±standard deviation) (D. u. howardi [7]; August 27, first year): 0.3 ± 0.5^a per sticky trap per day
